How the values were obtained:
[1] = test system: patients who experience first psychotic episode; assay: Calgary Depression Scale for Schizophrenia, adjuvant study; format: in vivo, human; conditions: atypical antipsychotic drug+minocycline 200 mg/day vs +placebo; p=0.099, n.s.
Method: The study was carried out in patients who experience first psychotic episode, and has followed the patient for a total duration of 6 months. As the study examines Minocycline as an adjuvant drug, the sample includes patients receiving one of the following atypical anti-psychotic drugs: Risperdal, Zyprexa, Geodon, Seroquel, and Leponex. […] Initial evaluation included the following clinical measures: • SCID (for reliability of diagnosis) • CGI (Clinical Global Impression) • PANSS (Positive and Negative Syndrome Scale for Schizophrenia) • SANS (Scale for the Assessment of Negative Symptoms) • Calgary Depression Scale for Schizophrenia • GAF • GRAF • Insight and Treatment Attitudes Questionnaire • QLS (Quality of Life Scale) • Multinomah Community Ability Scale • Extrapyramidal Side Effects Scale. Minocycline was given as an add-on therapy. […] Clinical status was evaluated by the aforementioned scales at the onset of the study, every week for the first 6 weeks, and then once a month for the rest of the study period. Cognitive capabilities were assessed by the neuropsychological battery of tests according to the following schedule: upon initiation of the study (referred to as visit 1 in FIGS. 5-8), 3 months (referred to as visit 2 in FIGS. 5-8), and 6 months (referred to as visit 3 in FIGS. 5-8) after the start of the study. […]

[2] = test system: MK801 treated rats; assay: Habituation of the Acoustic Startle Response (ASR), MK801 animal model; format: in vivo, rat
Method: Acoustic Startle Response (ASR) and Pre-Pulse Inhibition (PPI): Both experimental paradigms were performed in a room that was adjacent to the laboratory facilities and the animal stall and that was not used for other experiments. The animals were tested in squad of two with startle chambers counterbalanced across the different experimental groups. Startle response and prepulse inhibition were measured using two ventilated startle chambers (SR-LAB system, San Diego Instruments, San Diego, Calif.). Each chamber consisted of a Plexiglas cylinder resting on a platform inside a sound-attenuated, ventilated chamber. A high-frequency loudspeaker inside the chamber produced both a continuous broadband background noise of 70 dB and the various acoustic stimuli. Movement inside the tube was detected by a piezoelectric accelerometer below the frame. The amplitude of the whole body startle to an acoustic pulse was defined as the average of 100 one-msec accelerometer readings collected from pulse onset. These signals were then digitized and stored by a computer. Sound levels within each test chamber were measured routinely using a sound level meter (Radio Shack) to ensure consistent presentation. The SR-LAB calibration unit was used routinely to ensure consistent stabilimeter sensitivity between test chambers and over time (Swerdlow and Geyer, 1998, Schizophrenia Bulletin, 24(2), 285-301).
(§1) Fifteen minutes before the behavioral procedures conducted at the fourth day, the subject was injected i.p. with an 0.1 mg/kg dose of MK801 or saline, for a total volume of 1 ml per kg of body weight. Next, the subjects passed the three behavioral procedures, described in the following paragraphs.
ASR and PPI were measured using two startle chambers, with each chamber consisting of a Plexiglas cylinder resting on a platform inside a sound-attenuated, ventilated chamber (see also materials section). The animals were tested in pairs with startle chambers counterbalanced across the different experimental groups.
The ASR test measured the ability of the animal to habituate to repetitive loud pulses of noise. […] Movement inside the tube was detected by a piezoelectric accelerometer below the frame. The amplitude of the whole body startle to an acoustic pulse was defined as the average of 100 one-msec accelerometer readings collected from pulse onset. […]
Acoustic Startle Response (ASR): The decrease in ASR in the groups was calculated as the percent of amplitude decrease between the mean of the first five amplitude values and the mean of the last 25 amplitude values.
Percent habituation=100×[(average startle amplitude in Block 1)−(average startle amplitude in Block 5)/(average startle amplitude in Block 1)]. Results were analyzed by two-way ANOVA a between-subject measure of ‘group’ (treatment group).

[3] = test system: MK801 treated rats; assay: Morris Water Maze (MWM) task, MK801 animal model of schizophrenia; format: in vivo, rat
Method: Morris Water Maze (MWM): The MWM consisted of a water pool (diameter=1.8 m; depth=0.6 m) containing water at 26±1° C. A hidden platform was located 1.5 cm below the water surface. Within the testing room, only distal visuo-spatial cues were available to the rats for location of the submerged platform. A video camera was placed above the center of the pool for tracking the rat, and a video tracking system (Noldus Information Technology b.v., Wageninpen, The Netherlands) with online digital output, directly fed data into a computer and analyzed. Data were analyzed by using an Etho-Vision automated tracking system (Noldus Information Technology).
as §1
The MWM, a hippocampal-dependent visuo-spatial learning task, was used to assess the subjects' spatial learning/memory. The ability of an animal to locate a hidden platform submerged under water by using extra-maze cues from the test environment was examined. The rats were trained in a pool 1.8 m in diameter and 0.6 m high, containing water at 26±1° C. A 10 cm square transparent platform was hidden in a constant position in the pool submerged 1 cm below the water level. Within the testing room only distal visuo-spatial cues were available to the rats for location of the submerged platform.
Rats were given four trials per day, to find the hidden platform (acquisition phase). The escape latency, i.e., the time required by the rat to find and climb onto the platform, was recorded for up to 120 sec. Each rat was allowed to remain on the platform for 30 sec, and was then removed to its home cage.
Morris Water Maze (MWM): Escape latency, the time between placing the rat in the pool until it located the platform, was measured during behavioral testing. The escape latency was analyzed by means of […] repeated measures analysis of variance (ANOVA) with a between-subjects measure of ‘group’ (treatment group) and a within-subjects measure of ‘trail’ (effects amongst groups in the four different trials).
The MWM test was then performed (see FIG. 1 for results). A significant main effect of ‘group’, ‘trail’ and a significant ‘group’×‘trails’ interaction was found in the repeated measured ANOVA for the MWM task [F(5,35)=9.699, p<0.001; F(3,33)=31.551, p<0.001; F(15,91)=1.824, p<0.05; respectively].

With `CN(C)c1ccc(O)c2c1C[C@H]1C[C@H]3[C@H](N(C)C)C(O)=C(C(N)=O)C(=O)[C@@]3(O)C(O)=C1C2=O` [minocycline] the “Total Calgary Score” value [1] was “tended to reach greater improvement”, the “percent habituation of the startle response (% habituation)” value ([2]; drug alone (no MK801) vs saline treated animals) was “no effect on habituation of ASR” and the “percent habituation of the startle response (% habituation)” value ([2]; drug+MK801 0.1 mg/kg i.p., minocycline 35 mg/kg x 3 days pretreatment, haloperidol 0.4 mg/kg i.p.) was “able to prevent the deficits induced by MK801”. The “escape latency, impairments induced by MK801” value ([3]; main procedure: minocycline 35 mg/kg x 3 days, MK801 0.1 mg/kg i.p.) was “reduce the impairments induced by MK801”, the “escape latency, trail 4” value ([3]; minocycline 35 mg/kg before MK801, vs MK801 group, p<0.05) was “significant difference when compared to the MK801 group” and the “escape latency, improvement compared with haloperidol” value ([3]; minocycline 35 mg/kg+MK801 vs haloperidol 0.4 mg/kg+MK801) was “somewhat more significant than that caused by haloperidol”. For the same compound, the “dose dependence of effect in the MWM task” value ([3]; minocycline 20, 25, 30, 35 mg/kg before MK801) was “good dose dependent effect”, the escape latency ([3]; minocycline 20 and 25 mg/kg for three consecutive days before MK801, vs saline and MK801 groups) was “no significant differences with the MK801 treated rats” and the escape latency ([3]; minocycline 30 and 35 mg/kg for three consecutive days before MK801, vs saline group) was “did not differ from the saline treated group”.

Source: patent US20130190275A1, “COMBINED THERAPIES OF ANTIPSYCHOTIC DRUGS AND TETRACYCLINES IN THE TREATMENT OF PSYCHIATRIC DISORDERS” (MOR RESEARCH APPLICATIONS LTD., priority 2006, published 2013)
